pIC50: −log10 of the molar value. Like-named read-outs stand apart in the source and are kept apart here. Each block holds one compound with its values, some of them ahead of it.
Assays:
[1] = tested on: plck-GAPDH tumor (AITL-like lymphoma) engrafted in NSG mice; assay: Treatment of plck-GAPDH AITL lymphoma engrafted NSG mice; format: in vivo, mouse
Protocol: Tumor Transplantation into NOD/SCIDγc−/− (NSG) Mice
Single cell suspensions from spleen or lymph nodes of old (>18 months) plck-GAPDH mice with splenomegaly were injected intravenously (i.v.) into 6-8 week old NSG mice (1-2E7 splenocytes per mouse). Recipient mice were sacrificed for evaluation when the mice became weak and/or splenomegaly could be detected (30 to 60 days after injection). The different hematopoietic organs (liver, spleen, blood) were isolated and single cell suspension prepared for FACS analysis (see below).
Treatment with NIK Inhibitor
Plck-GAPDH tumors were injected into 10 NSG mice (see above) and 5 were treated with a newly developed chemical NIK inhibitor (compound 5 according to the invention) or with Vehicle. IP injections were performed every other day with compound 5 (250 μg in 100 μl DMSO/Tween-20/Labrafil) or vehicle (100 μl DMSO/Tween-20/Labrafil). The second NIK inhibitor used (compound 38 according to the invention) was more soluble and IP injections were performed every other day with compound 38 (250 μg in 100 μl NaCl 0,9%/mouse) or vehicle (100 μl NaCl 0,9%/mouse).
Two different plck-GAPDH tumors expressing high levels of PD-1 on the CD4^+ T cells were injected into 10 NSG mice and the mice were treated with anti-PD1 antibody (clone PMP1-14, BioXcell; 125 μg in PBS/mouse) or an isotope control antibody daily for the first 2 days post-tumor injection, then every other day.
Combined anti-PD1 and NIK Inhibitor Treatment
The mice were injected with antibody (anti-PD1 or isotype control) in the morning and compound 38 according to the invention (injected in the evening) daily for the first 2 days plck-GAPDH post-tumor injection, then every other day. Same concentration as for single treatments was used.
Recipient mice were sacrificed at endpoint (>10% weight loss or palpable splenomegaly). Single cell suspensions were prepared from the spleen, BM and liver for immunophenotypic FACS analysis.

[2] = tested on: human Diffuse large B-cell lymphoma (DLBCL) B cell lines (U2932, KARPAS 422, SUDHL6, OCYL3); assay: B cell lymphoma proliferation assay; format: cell-based; conditions: 10 μM, 96 h
Protocol: B Cell Lymphoma Proliferation Assay
The tested cancer cells are the following: the human Diffuse large B-cell lymphoma (DLBCL) cell lines: Karpas-422, SUDHL-6, U2932 and Oxyl3.
Cells were counted using a flow cytometer (MACQUANT, Miltenyi). 2E5 cells were seeded in 2 ml RPMI-GlutamaX supplemented with 10% FCS at start of the proliferation assay in a 6-well plate supplemented with the NIK Inhibitor (compound 38) at 10 μM for 96 h. The cell numbers at 96h were then determined by counting using a flow cytometer. We distinguished dead and living cells using DAPI staining.
Proliferation was calculated as followed:
Proliferation (%)=(Treated cell number/untreated cells)*100.
The average and standard deviation were determined from 3 independent experiments.

melanoma cell line A375 = assay: In vitro dose response study, A375 proliferation; format: cell-based, human; conditions: A375, 96h; for pIC50: Homo sapiens, A-375, graded concentration, cell concentration
Protocol: The melanoma cell line A375 was treated during 96h with graded concentration of compounds 5, 38, 42 and 43. At the end of the culture period, the cell concentration was determined.

Solubility = format: physicochemical
NIK = NIK (Homo sapiens, UniProt Q99558); conditions: patent PCT/EP2017/067306; cited from earlier work
[3] = tested on: IFN-γ in supernatant of A375 cancer cells; assay: ELISA measurement of IFN-γ in supernatant; format: cell-based, human; conditions: 10 μM, 96 h
Protocol: Supernatant from cells treated for 96 h was tested for human or mouse IFN-γ content via ELISA (peprotech, cat 900-k27 and 900-k98) kit following the manufacturer's instructions.

[4] = tested on: pancreas carcinoma (MiaPaca 2); assay: Cancer cell proliferation assay (trypan blue exclusion), MiaPaca-2; format: cell-based, human; conditions: 10 μM; proliferation normalized to DMSO-treated control
Protocol: (§1) Cancer cell proliferation assay (A375, A549, PC3, HT-29, MiaPaca-2 and MCF-7)
(§2) The tested cancer cells are the following: human melanoma cells (A375), lung carcinoma cells (A549), prostate cancer cells (PC3), colon adenocarcinoma (HT29), pancreas carcinoma (MiaPaca 2) and breast carcinoma (MCF-7).
(§3) Cells were counted using a Malassez chamber. The average and standard deviation were calculated from triplicate experiments. Antiproliferative effects were evaluated by trypan blue exclusion assay. Briefly, cells were seeded into 12-well plate and grown in media supplemented with indicated compound at 1 or 10μM for 48h or 96h. Cells were washed with PBS and detached by trypsinization, collected and colored by trypan blue.
(§4) Dead and living cells were counted and proliferation was calculated as follow: Proliferation (%)=[(treated cell number/untreated cells number)*100].
(§5) As a comparison, cell viability was also determined and calculated as follow: Viability (%)=100−[(dead cell number/total cells)*100].

human melanocytes (MHN) = assay: Melanocyte viability assay (MHN); format: cell-based; conditions: 10 μM, 96 h; viability normalized to DMSO-treated control
Protocol: Melanocyte Viability Assay (MHN)
Cell viability effects were evaluated by trypan blue exclusion assay. Briefly, cells were seeded into 12-well plate and grown in media supplemented with indicated compound at 10 μM for 96 h. Cells were washed with PBS and detached by trypsinization, collected and colored by trypan blue. Dead and living cells were counted and cell viability was calculated as follow: Viability (%)=100−[(dead cell number/total cells)*100].

[5] = tested on: human melanoma cells (A375); assay: Cancer cell proliferation assay (trypan blue exclusion), A375; format: cell-based; conditions: 10 μM; proliferation normalized to DMSO-treated control
Protocol: as §1, §2, §3, §4, §5

[6] = tested on: colon adenocarcinoma (HT29); assay: Cancer cell proliferation assay (trypan blue exclusion), HT29; format: cell-based, human; conditions: 10 μM; proliferation normalized to DMSO-treated control
Protocol: as §1, §2, §3, §4, §5

[7] = tested on: prostate cancer cells (PC3); assay: Cancer cell proliferation assay (trypan blue exclusion), PC3; format: cell-based, human; conditions: 10 μM; proliferation normalized to DMSO-treated control
Protocol: as §1, §2, §3, §4, §5

[8] = tested on: EZH2 mRNA in A375 cancer cells; assay: Quantitative RT-PCR analysis of EZH2 gene expression; format: cell-based, human; conditions: 10 μM, 96 h
Protocol: (§6) Quantitative RT-PCR Analysis of EZH2 and p21 Gene Expression
(§7) Total RNA was isolated from cells using the RNAeasy minikit (Qiagen) according to the manufacturer's procedure. Reverse transcription was performed using the AMV reverse transcription system (Promega), and quantitative PCR was performed with Power Sybr green (Applied Biosystems, Life Technologies, Grand Island, N.Y.) following the manufacturer's instructions. The PCR was carried out on a Step One plus Real-Time PCR system (Applied Biosystems). All analyses were done in triplicate, and a melting curve analysis was performed to control for product quality and specificity. Expression levels were calculated using the comparative method of relative quantification, with SB34 as a normalizer. The data were analyzed for statistical significance using Student's t-test. The results are presented as the mean±SEM relative to the control.
(§8) PCR primers for EZH2 (accession number NM004456.4) and p21(CDKN1A) (accession number NM078467.2) were obtained from primer bank or primer depot (http://pga.mgh.harvard.edu/primerbank/, https://primerdepot.nci.nih.gov), and their specificity was verified using primer blast (http://www.ncbi.nlm.nih.gov/tools/primer-blast/).

[9] = tested on: lung carcinoma cells (A549); assay: Cancer cell proliferation assay (trypan blue exclusion), A549; format: cell-based, human; conditions: 10 μM; proliferation normalized to DMSO-treated control
Protocol: as §1, §2, §3, §4, §5

[10] = tested on: senescence-associated β-galactosidase (SA-β-Gal); assay: Quantitative senescence-associated beta-galactosidase assay; format: cell-based; conditions: SA-β-Gal 4-MUG cleavage; relative to DMSO-treated control
Description: Quantitative Senescence-Associated Beta-Galactosidase Assay
The production of the fluorophore was monitored at an […] wavelength of 365/460 nm, as reported (Gary and Kindell, 2005)

breast carcinoma (MCF-7) = assay: Cancer cell proliferation assay (trypan blue exclusion), MCF-7; format: cell-based, human; conditions: 10 μM; proliferation normalized to DMSO-treated control
Protocol: as §1, §2, §3, §4, §5

[11] = tested on: p21 (CDKN1A) mRNA in A375 cancer cells; assay: Quantitative RT-PCR analysis of p21 gene expression; format: cell-based, human; conditions: 10 μM, 96 h
Protocol: as §6, §7, §8

[12] = Microsomal stability (mouse liver microsomes); format: in vitro ADME; conditions: mouse liver microsomes 0.5 mg/mL, NADPH 1 mM, 37° C.
Protocol: Microsomal Stability (Mouse Liver Microsomes)
Microsomal stability was evaluated with mouse liver microsomes (0.5 mg/mL) and NADPH cofactor (1 mM) at 37° C. The percentage of remaining compound is determined at 5 min by LC-MS by measuring the area under the peak of compound on the chromatogram.

[13] = plck-GAPDH tumor engrafted NSG mice

NIK, sequence (Q99558 whole entry): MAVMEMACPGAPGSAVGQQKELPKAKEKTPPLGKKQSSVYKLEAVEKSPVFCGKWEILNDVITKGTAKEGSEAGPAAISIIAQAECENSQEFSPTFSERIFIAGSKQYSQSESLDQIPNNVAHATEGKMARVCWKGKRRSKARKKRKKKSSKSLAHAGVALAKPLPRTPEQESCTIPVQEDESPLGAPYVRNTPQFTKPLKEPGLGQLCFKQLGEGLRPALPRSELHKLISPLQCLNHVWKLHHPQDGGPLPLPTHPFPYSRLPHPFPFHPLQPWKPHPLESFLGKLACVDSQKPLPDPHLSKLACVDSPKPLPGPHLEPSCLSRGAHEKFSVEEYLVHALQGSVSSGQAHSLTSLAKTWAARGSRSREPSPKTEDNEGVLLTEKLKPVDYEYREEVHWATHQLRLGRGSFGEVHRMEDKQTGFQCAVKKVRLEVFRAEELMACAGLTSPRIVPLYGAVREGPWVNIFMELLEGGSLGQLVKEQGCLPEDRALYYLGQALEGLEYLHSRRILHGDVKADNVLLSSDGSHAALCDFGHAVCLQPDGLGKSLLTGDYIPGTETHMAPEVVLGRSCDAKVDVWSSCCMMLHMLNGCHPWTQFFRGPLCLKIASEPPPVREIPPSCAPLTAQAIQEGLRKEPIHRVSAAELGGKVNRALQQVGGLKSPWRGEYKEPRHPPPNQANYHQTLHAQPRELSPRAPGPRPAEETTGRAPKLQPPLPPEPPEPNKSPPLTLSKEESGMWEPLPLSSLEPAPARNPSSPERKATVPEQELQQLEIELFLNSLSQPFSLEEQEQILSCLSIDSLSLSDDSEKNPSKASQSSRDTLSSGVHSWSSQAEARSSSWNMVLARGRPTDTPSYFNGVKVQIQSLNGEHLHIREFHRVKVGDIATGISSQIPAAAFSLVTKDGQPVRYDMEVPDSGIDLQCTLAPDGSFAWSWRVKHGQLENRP

SMILES: COc1ccc(Nc2ccnc3cc(Cl)ccc23)cc1OC [Compound 38, N-(3,4-dimethoxyphenyl)-7-chloroquinolin-4-amine]
survival of the plck-GAPDH tumor engrafted mice ([1]; NSG mice, compound 38 250 μg IP, anti-PD1 125 μg, every other day): up to 60% | B cells in the spleen at sacrifice [1, 13]: highly significant decrease | CD4+ T cells in the spleen [1, 13]: strong reduction | Tfh PD1high CD4+ population in the spleen [1, 13]: residual subpopulation | spleen size at sacrifice compared to controls [1, 13]: significant decrease in spleen size | CD8 cytotoxicity (IFNγ, granzyme B, perforin by cytotoxic CD8+ cells) ([1]; splenocytes at sacrifice, PMA/ionomycin 5 h): increasing CD8 IFNγ release | proliferation of B cell lymphoma cancer cell lines compared with controls (DMSO) [2]: strong inhibitory effect | cell viability of B cell lymphoma cell lines ([2]; data not shown): without affecting the cell viability | concentration at which inhibition of A375 proliferation starts (melanoma cell line A375): around 5 mM | pIC50 (melanoma cell line A375): 6.25 | solubility (Solubility): more soluble | solubility (Solubility; listed as COMPONENT 38): high solubility | anti-NIK activity (NIK): potent

SMILES: COc1ccc(Nc2ccnc3cc(Cl)ccc23)cc1 [Compound 5, N-(4-methoxyphenyl)-7-chloroquinolin-4-amine]
GC B cells in the spleen at sacrifice [1, 13]: completely devoid of GC B cells | survival of tumor engrafted NSG mice as compared to the control group ([1]; plck-GAPDH tumor engrafted NSG mice, IP treatment day 1 and 2, then every other day): significant increased survival | concentration at which inhibition of A375 proliferation starts (melanoma cell line A375): around 5 mM | pIC50 (melanoma cell line A375): 5.88 | anti-NIK activity (NIK): confirmed its activity in vitro

SMILES: COCCOc1ccc(Nc2ccnc3cc(Cl)ccc23)cc1 [Compound 42, 7-chloro-N-(4-(2-methoxyethoxy)phenyl)quinolin-4-amine]
ELISA IFN-γ (A375), IFN-γ concentration [3]: 1.73 (ng/mL)/millions cells | Cancer Cell Proliferation MiaPaca-2 [4]: 7.8% | Heathly Cell Viability MHN (human melanocytes (MHN)): 99.0% | Cancer Cell Proliferation A375 [5]: 6.9% | Cancer Cell Proliferation HT29 [6]: 3.5% | Cancer Cell Proliferation PC3 [7]: 14.1% | qPCR EZH2 A375 mRNA [8]: 0.23 fold relative to DMSO-treated control | Cancer Cell Proliferation A549 [9]: 19.5% | % Senescence, conversion rate [10]: 645.9% | Cancer Cell Proliferation MCF-7 (breast carcinoma (MCF-7)): 11.9% | concentration at which inhibition of A375 proliferation starts (melanoma cell line A375): around 5 mM | qPCR p21 A375 mRNA [11]: 6.79 fold relative to DMSO-treated control

Microsomal stability, mouse liver (5 min), percentage of the remaining compound [12]: 41% ± 3 | Microsomal stability, mouse liver (5 min), percentage of the remaining compound ([12]; listed as compound 43): 41%
SMILES: COc1ccc(Nc2ccnc3cc(Cl)ccc23)cc1O [Compound 43, 7-chloro-N-(3-(hydroxy)-4-(methoxy)phenyl)quinolin-4-amine]
ELISA IFN-γ (A375), IFN-γ concentration [3]: 0.41 (ng/mL)/millions cells | Cancer Cell Proliferation MiaPaca-2 [4]: 32.4% | Cancer Cell Proliferation A375 [5]: 30.5% | Cancer Cell Proliferation HT29 [6]: 15.6% | Cancer Cell Proliferation PC3 [7]: 55.0% | qPCR EZH2 A375 mRNA [8]: 0.62 fold relative to DMSO-treated control | Cancer Cell Proliferation A549 [9]: 51.1% | % Senescence, conversion rate [10]: 1875.1% | Cancer Cell Proliferation MCF-7 (breast carcinoma (MCF-7)): 29.5% | concentration at which inhibition of A375 proliferation starts (melanoma cell line A375): around 5 mM | qPCR p21 A375 mRNA [11]: 3.08 fold relative to DMSO-treated control

Source: US20200360365A1, “SUBSTITUTED HALO-QUINOLINE DERIVATES FOR USE IN THE TREATMENT OF LYMPHOMAS AND LEUKEMIA” (Instutut National de la Sante et de la Researche Medicale, priority 2018, published 2020)
